The values below come from US11324798B2, “Materials and methods for treatment of inflammation” (CYTOGEL PHARMA, LLC, priority 2010, dated 2022).

Series [1] concerns mustard oil-induced acute neurogenic inflammation in the mouse ear. Nature of the series: 5% mustard oil-induced acute neurogenic ear swelling of the mouse, micrometry (Example 2). Type of series: in vivo. As to conditions: for AUC of time course of percentage ear swelling: 3 h, control 55.29±4.91. As to the method:
For the in vivo rat and mouse experiments, 5.5 ml of the 1 mg/ml stock solution of CYT-1010 was prepared freshly every experimental day with 20% HPCD dissolved in sterile distilled water. […] The vehicle was 20% HPCD dissolved in sterile distilled water. Further dilutions of the compound for the smaller administered doses were made with this vehicle, the 500 μg/ml and 100 μg/ml concentrations looked opalescent and the lower concentrations were clear. In rats 0.1 ml/100 g, in mice 0.1 ml/10 g volumes were administered i.v. 10 min before the induction of the inflammation.
Mice were anaesthesized with urethane (1.2 g/kg i.p.) to achieve a long-lasting deep anaesthesia and minimize respiratory depression. Ten μl of 5% mustard oil dissolved in paraffin oil was smeared on both sides of both ears. Mustard oil in this concentration selectively activates Transient Receptor Potential A1 (TRPA1) on capsaicin-sensitive peptidergic sensory nerves and induces the release of sensory neuropeptides. The released CGRP and substance P (SP) in the innervated area evoke vasodilatation and plasma protein extravasation, collectively called as acute neurogenic inflammation.
CYT-1010 (1, 10, 100, 500 and 1000 μg/kg; 0.1 ml/10 g from the 0.1, 1, 10, 50 and 100 μg/ml solutions) was administered i.v. 5 min before the induction of the inflammation by mustard oil smearing. Mice in the control group were treated with the same volume of the vehicle, 20% hydroxypropyl-β-cyclodextrin dissolved in sterile distilled water. The experimental protocol is also illustrated in FIG. 1.
There were 8 mice in each CYT-1010-treated experimental group, and 9 in the vehicle-treated control group. 49 male CD1 mice (25-35 g) altogether were divided into 6 experimental groups: Group 1: vehicle-treated controls (n=9); Group 2: 1 μg/kg CYT-1010 (n=8); Group 3: 10 μg/kg CYT-1010 (n=8); Group 4: 100 μg/kg CYT-1010 (n=8); Group 5: 500 μg/kg CYT-1010 (n=8); and Group 6: 1000 μg/kg CYT-1010 (n=8).
This study was undertaken in blocks with 12-13 mice per occasion. The whole set of data was obtained during 4 days. There were 2 or 3 solvent-treated rats every day and the remaining 12 animals were randomised to receive each treatment.
The diameter of the ear was measured with an engineers' micrometer before the treatment and 4 times during the 3 h-examination period (20 min, 1 h, 2 h and 3 h). Oedema was expressed in % compared to the initial control values (Banvolgyi et al., 2004, 2005; Borzsei et al., 2008). Each of these publications is incorporated herein by reference in its entirety.
Results are expressed as the mean±s.e.m. and analyzed for statistical significance with one-way ANOVA followed by Dunnett post-hoc test when the data were compared to the control group. In the rat in vivo studies, multiple comparisons were also made with Bonferroni's modified t-test to compare the effects of the different doses to each other. *p<0.05 was considered to be significant.

A short description of series [2]: Survival of anaesthetised mice after i.v. CYT-1010 injection. Format: in vivo. As to the method:
In the first series of the in vivo experiments of mice, ketamine (100 mg/kg, i.p.) and xylazine (10 mg/kg, i.m.) were used for anesthesia according to the conventional protocol.

On to `NC(Cc1ccc(O)cc1)C(=O)NC1CCCCNC(=O)C(Cc2ccccc2)NC(=O)C(Cc2c[nH]c3ccccc23)NC1=O` [CYT-1010, H-Tyr-c-[D-Lys-Trp-Phe]], for which the “AUC of time course of percentage ear swelling” value in series [1] (1 μg/kg i.v., P<0.05) was determined as 28.99±4.60 units; in series [1] (10 μg/kg i.v., P<0.01), 28.15±3.42 units; in series [1] (100 μg/kg i.v., P<0.01) it was 26.55±5.51 units; in series [1] (500 μg/kg i.v., NS) it was 52.24±9.70 units; in series [1] (1000 μg/kg i.v., NS), 37.25±5.72 units. Also, the “Effect on mustard oil-induced acute neurogenic ear swelling” value in series [1] (1 μg/kg, 10 μg/kg and 100 μg/kg i.v.) is “significantly reduced”. Also, the “Effect on mustard oil-induced ear swelling” value in series [1] (1, 10 and 100 μg/kg i.v., at 1 hour) is reported as “significant anti-edema action”; in series [1] (500 and 1000 μg/kg i.v.) it was “did not influence ear swelling”. The “Significant inhibition of mustard oil-induced ear swelling” value in series [1] (1-1000 μg/kg i.v., 20 minutes post induction) is “none of the examined CYT-1010 doses”. The “Anti-edema effect on the mouse ear” value in series [1] (1-1000 μg/kg i.v., throughout a 3-h period) is on record as “significant anti-edema effect”. In addition, the “Inhibitory action on ear swelling” value in series [1] (10 and 100 μg/kg i.v., both later time points (2 h, 3 h)) is given as “statistically significant”. The “Mortality after i.v. injection” value in series [2] (mice under ketamine (100 mg/kg, i.p.) and xylazine (10 mg/kg, i.m.) anesthesia, presumably respiratory depression) is listed as “all the 10 mice died promptly”. Moreover, the “Time to death after i.v. injection” value in series [2] (mice under ketamine/xylazine anesthesia) is at most 5 min. In series [2] (mice under urethane (1.2 g/kg i.p.) anaesthesia, one death in the 1 μg/kg dose group), the “Survival after i.v. injection” value is “all mice survived except one”.
